Test results as given in the NIST ThermoML archive (doi:10.1016/j.jct.2018.12.018).
Where “and” joins values, the source holds several entries; their conditions need not be identical. Equal values may be shown once.

Experiment: xn = mol fraction of the nth substance listed
Settings: Liquid, x1 = 0.617; for speed of sound: Frequency=3 MHz, Single path-length method; for mass density: Vibrating tube method

CCOC(F)(F)C(F)(C(F)(F)F)C(F)(F)F [nonafluoroisobutyl ethyl ether] + CCOC(F)(F)C(F)(F)C(F)(F)C(F)(F)F
Settings	mass density	speed of sound [m/s]
293.15 K, 100 kPa	1433.9 kg/m3 and 1434.27 kg/m3	637.83
293.15 K, 1000 kPa	1436.6 kg/m3	–
293.15 K, 5000 kPa	1448.2 kg/m3	–
293.15 K, 10000 kPa	1461.3 kg/m3	–
293.15 K, 15000 kPa	1473.4 kg/m3	–
293.15 K, 20000 kPa	1484.5 kg/m3	–
293.15 K, 25000 kPa	1494.8 kg/m3	–
293.15 K, 30000 kPa	1504.7 kg/m3	–
293.15 K, 35000 kPa	1513.9 kg/m3	–
293.15 K, 40000 kPa	1522.5 kg/m3	–
293.15 K, 45000 kPa	1530.8 kg/m3	–
293.15 K, 50000 kPa	1538.7 kg/m3	–
293.15 K, 55000 kPa	1546.3 kg/m3	–
293.15 K, 60000 kPa	1553.5 kg/m3	–
293.15 K, 65000 kPa	1560.5 kg/m3	–
293.15 K, 70000 kPa	1567.2 kg/m3	–
293.15 K, 80000 kPa	1580 kg/m3	–
293.15 K, 90000 kPa	1591.9 kg/m3	–
293.15 K, 100000 kPa	1603.1 kg/m3	–
293.15 K, 110000 kPa	1613.9 kg/m3	–
293.15 K, 120000 kPa	1624 kg/m3	–
293.15 K, 130000 kPa	1633.7 kg/m3	–
293.15 K, 140000 kPa	1642.8 kg/m3	–
298.15 K, 100 kPa	1423.06 kg/m3 and 1422.8 kg/m3	622.13
298.15 K, 1000 kPa	1425.6 kg/m3	–
298.15 K, 5000 kPa	1437.7 kg/m3	–
298.15 K, 10000 kPa	1451.5 kg/m3	–
298.15 K, 15000 kPa	1463.9 kg/m3	–
298.15 K, 20000 kPa	1475.4 kg/m3	–
298.15 K, 25000 kPa	1486.2 kg/m3	–
298.15 K, 30000 kPa	1496.1 kg/m3	–
298.15 K, 35000 kPa	1505.7 kg/m3	–
298.15 K, 40000 kPa	1514.5 kg/m3	–
298.15 K, 45000 kPa	1523 kg/m3	–
298.15 K, 50000 kPa	1531.1 kg/m3	–
298.15 K, 55000 kPa	1538.8 kg/m3	–
298.15 K, 60000 kPa	1546.3 kg/m3	–
298.15 K, 65000 kPa	1553.4 kg/m3	–
298.15 K, 70000 kPa	1560.2 kg/m3	–
298.15 K, 80000 kPa	1573.2 kg/m3	–
298.15 K, 90000 kPa	1585.4 kg/m3	–
298.15 K, 100000 kPa	1596.9 kg/m3	–
298.15 K, 110000 kPa	1607.6 kg/m3	–
298.15 K, 120000 kPa	1618 kg/m3	–
298.15 K, 130000 kPa	1627.8 kg/m3	–
298.15 K, 140000 kPa	1637.2 kg/m3	–
303.15 K, 100 kPa	1411.62 kg/m3	606.46
313.15 K, 100 kPa	1388.53 kg/m3 and 1388.4 kg/m3	575.75
313.15 K, 1000 kPa	1391.8 kg/m3	–
313.15 K, 5000 kPa	1405.6 kg/m3	–
313.15 K, 10000 kPa	1421.1 kg/m3	–
313.15 K, 15000 kPa	1435.1 kg/m3	–
313.15 K, 20000 kPa	1447.8 kg/m3	–
313.15 K, 25000 kPa	1459.5 kg/m3	–
313.15 K, 30000 kPa	1470.6 kg/m3	–
313.15 K, 35000 kPa	1480.8 kg/m3	–
313.15 K, 40000 kPa	1490.3 kg/m3	–
313.15 K, 45000 kPa	1499.5 kg/m3	–
313.15 K, 50000 kPa	1508.1 kg/m3	–
313.15 K, 55000 kPa	1516.4 kg/m3	–
313.15 K, 60000 kPa	1524.3 kg/m3	–
313.15 K, 65000 kPa	1531.9 kg/m3	–
313.15 K, 70000 kPa	1539.2 kg/m3	–
313.15 K, 80000 kPa	1552.9 kg/m3	–
313.15 K, 90000 kPa	1565.7 kg/m3	–
313.15 K, 100000 kPa	1577.6 kg/m3	–
313.15 K, 110000 kPa	1589 kg/m3	–
313.15 K, 120000 kPa	1599.7 kg/m3	–
313.15 K, 130000 kPa	1610 kg/m3	–
313.15 K, 140000 kPa	1619.7 kg/m3	–
323.15 K, 100 kPa	1365.15 kg/m3	545.46
333.15 K, 100 kPa	1341.02 kg/m3 and 1340.7 kg/m3	515.64
333.15 K, 1000 kPa	1344.8 kg/m3	–
333.15 K, 5000 kPa	1361.6 kg/m3	–
333.15 K, 10000 kPa	1380.1 kg/m3	–
333.15 K, 15000 kPa	1396.3 kg/m3	–
333.15 K, 20000 kPa	1410.8 kg/m3	–
333.15 K, 25000 kPa	1424.2 kg/m3	–
333.15 K, 30000 kPa	1436.4 kg/m3	–
333.15 K, 35000 kPa	1447.8 kg/m3	–
333.15 K, 40000 kPa	1458.5 kg/m3	–
333.15 K, 45000 kPa	1468.6 kg/m3	–
333.15 K, 50000 kPa	1478 kg/m3	–
333.15 K, 55000 kPa	1487 kg/m3	–
333.15 K, 60000 kPa	1495.5 kg/m3	–
333.15 K, 65000 kPa	1503.7 kg/m3	–
333.15 K, 70000 kPa	1511.5 kg/m3	–
333.15 K, 80000 kPa	1526.3 kg/m3	–
333.15 K, 90000 kPa	1540 kg/m3	–
333.15 K, 100000 kPa	1552.7 kg/m3	–
333.15 K, 110000 kPa	1564.7 kg/m3	–
333.15 K, 120000 kPa	1576 kg/m3	–
333.15 K, 130000 kPa	1586.8 kg/m3	–
333.15 K, 140000 kPa	1597.2 kg/m3	–
353.15 K, 1000 kPa	1295.2 kg/m3	–
353.15 K, 5000 kPa	1316.1 kg/m3	–
353.15 K, 10000 kPa	1338.1 kg/m3	–
353.15 K, 15000 kPa	1357.1 kg/m3	–
353.15 K, 20000 kPa	1373.9 kg/m3	–
353.15 K, 25000 kPa	1388.9 kg/m3	–
353.15 K, 30000 kPa	1402.6 kg/m3	–
353.15 K, 35000 kPa	1415.3 kg/m3	–
353.15 K, 40000 kPa	1426.8 kg/m3	–
353.15 K, 45000 kPa	1437.9 kg/m3	–
353.15 K, 50000 kPa	1448.2 kg/m3	–
353.15 K, 55000 kPa	1457.9 kg/m3	–
353.15 K, 60000 kPa	1467.2 kg/m3	–
353.15 K, 65000 kPa	1475.9 kg/m3	–
353.15 K, 70000 kPa	1484.5 kg/m3	–
353.15 K, 80000 kPa	1500.2 kg/m3	–
353.15 K, 90000 kPa	1514.8 kg/m3	–
353.15 K, 100000 kPa	1528.3 kg/m3	–
353.15 K, 110000 kPa	1541.1 kg/m3	–
353.15 K, 120000 kPa	1553 kg/m3	–
353.15 K, 130000 kPa	1564.3 kg/m3	–
353.15 K, 140000 kPa	1575.1 kg/m3	–
373.15 K, 1000 kPa	1242.1 kg/m3	–
373.15 K, 5000 kPa	1268.4 kg/m3	–
373.15 K, 10000 kPa	1295.1 kg/m3	–
373.15 K, 15000 kPa	1317.3 kg/m3	–
373.15 K, 20000 kPa	1336.2 kg/m3	–
373.15 K, 25000 kPa	1353.3 kg/m3	–
373.15 K, 30000 kPa	1368.8 kg/m3	–
373.15 K, 35000 kPa	1382.9 kg/m3	–
373.15 K, 40000 kPa	1395.6 kg/m3	–
373.15 K, 45000 kPa	1407.7 kg/m3	–
373.15 K, 50000 kPa	1418.8 kg/m3	–
373.15 K, 55000 kPa	1429.4 kg/m3	–
373.15 K, 60000 kPa	1439.5 kg/m3	–
373.15 K, 65000 kPa	1448.9 kg/m3	–
373.15 K, 70000 kPa	1457.9 kg/m3	–
373.15 K, 80000 kPa	1474.7 kg/m3	–
373.15 K, 90000 kPa	1490.2 kg/m3	–
373.15 K, 100000 kPa	1504.5 kg/m3	–
373.15 K, 110000 kPa	1517.9 kg/m3	–
373.15 K, 120000 kPa	1530.5 kg/m3	–
373.15 K, 130000 kPa	1542.3 kg/m3	–
373.15 K, 140000 kPa	1553.7 kg/m3	–
393.15 K, 1000 kPa	1183.9 kg/m3	–
393.15 K, 5000 kPa	1218.3 kg/m3	–
393.15 K, 10000 kPa	1250.8 kg/m3	–
393.15 K, 15000 kPa	1277 kg/m3	–
393.15 K, 20000 kPa	1299.1 kg/m3	–
393.15 K, 25000 kPa	1318.3 kg/m3	–
393.15 K, 30000 kPa	1335.4 kg/m3	–
393.15 K, 35000 kPa	1350.9 kg/m3	–
393.15 K, 40000 kPa	1365.1 kg/m3	–
393.15 K, 45000 kPa	1378.1 kg/m3	–
393.15 K, 50000 kPa	1390.2 kg/m3	–
393.15 K, 55000 kPa	1401.6 kg/m3	–
393.15 K, 60000 kPa	1412.4 kg/m3	–
393.15 K, 65000 kPa	1422.5 kg/m3	–
393.15 K, 70000 kPa	1432.1 kg/m3	–
393.15 K, 80000 kPa	1450 kg/m3	–
393.15 K, 90000 kPa	1466.2 kg/m3	–
393.15 K, 100000 kPa	1481.5 kg/m3	–
393.15 K, 110000 kPa	1495.5 kg/m3	–
393.15 K, 120000 kPa	1508.7 kg/m3	–
393.15 K, 130000 kPa	1521.1 kg/m3	–
393.15 K, 140000 kPa	1532.1 kg/m3	–
